{"source": "patent US8710043B2", "about": "“TRPM8 antagonists and their use in treatments” (Amgen Inc., priority 2011, dated 2014)", "molecular_target": "T1, human TRPM8 (Homo sapiens, UniProt Q7Z2W7)", "T1 construct": "expressed in transfected cells; host or cells: Chinese hamster ovary (CHO) cells, T-REx tetracycline-inducible system, co-transfected with aequorin", "T1 sequence (Q7Z2W7 whole entry)": "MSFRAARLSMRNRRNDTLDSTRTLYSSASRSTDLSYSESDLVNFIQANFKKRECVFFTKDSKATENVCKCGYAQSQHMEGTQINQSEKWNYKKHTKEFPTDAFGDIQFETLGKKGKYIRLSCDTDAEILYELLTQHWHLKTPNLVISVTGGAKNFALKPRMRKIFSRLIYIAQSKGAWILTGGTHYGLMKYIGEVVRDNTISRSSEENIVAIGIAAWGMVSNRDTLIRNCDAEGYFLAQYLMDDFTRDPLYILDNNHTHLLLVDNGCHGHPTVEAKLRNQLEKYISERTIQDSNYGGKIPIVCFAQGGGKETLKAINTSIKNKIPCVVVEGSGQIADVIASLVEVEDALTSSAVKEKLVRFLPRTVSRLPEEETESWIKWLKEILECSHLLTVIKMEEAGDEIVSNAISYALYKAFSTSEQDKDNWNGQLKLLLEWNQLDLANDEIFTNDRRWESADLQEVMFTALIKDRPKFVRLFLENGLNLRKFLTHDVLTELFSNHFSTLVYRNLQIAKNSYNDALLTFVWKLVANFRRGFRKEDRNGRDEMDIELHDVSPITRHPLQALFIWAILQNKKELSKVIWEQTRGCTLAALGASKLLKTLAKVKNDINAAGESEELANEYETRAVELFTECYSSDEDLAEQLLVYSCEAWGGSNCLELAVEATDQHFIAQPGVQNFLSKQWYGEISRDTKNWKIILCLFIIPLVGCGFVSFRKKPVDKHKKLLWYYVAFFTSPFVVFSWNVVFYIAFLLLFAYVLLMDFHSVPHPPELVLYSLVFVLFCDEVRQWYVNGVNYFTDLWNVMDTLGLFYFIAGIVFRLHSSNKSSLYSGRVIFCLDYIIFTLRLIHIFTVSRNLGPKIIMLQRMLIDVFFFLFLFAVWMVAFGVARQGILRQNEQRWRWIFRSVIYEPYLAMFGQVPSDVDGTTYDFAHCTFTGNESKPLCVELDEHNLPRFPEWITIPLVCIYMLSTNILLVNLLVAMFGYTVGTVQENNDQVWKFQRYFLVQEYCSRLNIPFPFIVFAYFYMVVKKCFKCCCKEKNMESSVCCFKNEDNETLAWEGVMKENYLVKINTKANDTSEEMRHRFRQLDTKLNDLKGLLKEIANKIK", "assay": "Luminescence readout assay for measuring intracellular calcium, icilin activation", "format": "cell-based", "details": "CHO cells expressing human TRPM8, aequorin luminescence, 1 μM icilin activation; read-out: hTRPM8 IC50", "method_in_brief": "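The read-out was luminescence reporting intracellular calcium, recorded by a CCD-based luminometer. Compounds were preincubated for 2.5 min before agonist challenge with 1 μM icilin. Human TRPM8 was expressed in a stable T-REx CHO line, induced with 0.5 μg/mL tetracycline the day before.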"}
{"smiles": "O=C(N[C@@H](c1cccc(Cl)c1)c1ncccc1C(F)(F)F)c1ccc2cccnc2c1", "note": "[Example 13, (S)-N-((3-chlorophenyl)(3-(trifluoromethyl)pyridin-2-yl)methyl)quinoline-7-carboxamide]", "values": [{"measurement": "IC50", "value": 0.0833, "unit": "µM"}]}
{"smiles": "CC(C)n1cc(C(=O)N[C@@H](c2ccc(C(F)(F)F)cc2)c2ncccc2F)ccc1=O", "note": "[Example 367, (S)-N-((3-fluoropyridin-2-yl)(4-(trifluoromethyl)phenyl)methyl)-1-isopropyl-6-oxo-1,6-dihydropyridine-3-carboxamide]", "values": [{"measurement": "IC50", "value": 0.0683, "unit": "µM"}]}
{"smiles": "O=C(N[C@@H](c1ccc(C(F)(F)F)cc1)c1ccccn1)c1ccc(=O)[nH]c1", "note": "[Example 201, (S)-6-oxo-N-(pyridin-2-yl(4-(trifluoromethyl)phenyl)methyl)-1,6-dihydropyridine-3-carboxamide 2,2,2-trifluoroacetate]", "values": [{"measurement": "IC50", "value": 0.0293, "unit": "µM"}]}
{"smiles": "CCn1cc(C(=O)N[C@@H](c2ccc(C(F)(F)F)cc2)c2ncccc2F)ccc1=O", "note": "[Example 364, (S)-1-ethyl-N-((3-fluoropyridin-2-yl)(4-(trifluoromethyl)phenyl)methyl)-6-oxo-1,6-dihydropyridine-3-carboxamide]", "values": [{"measurement": "IC50", "value": 0.0158, "unit": "µM"}]}
{"smiles": "COc1ncc(C(=O)N[C@@H](c2ccc(C(F)(F)F)cc2)c2ncccc2C(F)(F)F)cn1", "note": "[Example 42, (S)-2-methoxy-N-((4-(trifluoromethyl)phenyl)(3-(trifluoromethyl)pyridin-2-yl)methyl)pyrimidine-5-carboxamide]", "values": [{"measurement": "IC50", "value": 0.0539, "unit": "µM"}]}
{"smiles": "O=C(N[C@@H](c1ccc(OC(F)(F)F)c(F)c1)c1ncccc1F)c1cc2[nH]c(=O)oc2cn1", "note": "[Example 437, (S)—N-((3-Fluoro-4-(trifluoromethoxy)phenyl)(3-fluoropyridin-2-yl)methyl)-2-oxo-1,2-dihydrooxazolo[5,4-c]pyridine-6-carboxamide]", "values": [{"measurement": "IC50", "value": 0.225, "unit": "µM"}]}
{"smiles": "O=C(N[C@@H](c1ccc(C(F)(F)F)cc1)c1ncccc1C(F)(F)F)c1ccc2nccc(O)c2c1", "note": "[Example 109, (S)-4-hydroxy-N-((4-(trifluoromethyl)phenyl)(3-(trifluoromethyl)pyridin-2-yl)methyl)quinoline-6-carboxamide 2,2,2-trifluoroacetate]", "values": [{"measurement": "IC50", "value": 0.0639, "unit": "µM"}]}
{"smiles": "CC#Cc1cccnc1[C@@H](NC(=O)c1ccc2ncccc2c1)c1ccc(C(F)(F)F)cc1", "note": "[Example 93, (S)-N-((3-(prop-1-yn-1-yl)pyridin-2-yl)(4-(trifluoromethyl)phenyl)methyl)quinoline-6-carboxamide]", "values": [{"measurement": "IC50", "value": 0.0178, "unit": "µM"}]}
{"smiles": "N#Cc1ccc(C(=O)N[C@@H](c2ccc(C(F)(F)F)cc2)c2ncccc2F)cc1", "note": "(stereo in doubt) [Example 200, 4-cyano-N-((3-fluoropyridin-2-yl)(4-(trifluoromethyl)phenyl)methyl)benzamide]", "values": [{"measurement": "IC50", "value": 0.0493, "unit": "µM"}]}
{"smiles": "O=C(N[C@@H](c1ccc(OC(F)(F)F)c(F)c1)c1ncccc1F)c1cc2n(n1)CCCO2", "note": "[Example 355, (S)-N-((3-fluoro-4-(trifluoromethoxy)phenyl)(3-fluoropyridin-2-yl)methyl)-6,7-dihydro-5H-pyrazolo[5,1-b][1,3]oxazine-2-carboxamide]", "values": [{"measurement": "IC50", "value": 0.0385, "unit": "µM"}]}
{"smiles": "O=C(N[C@@H](c1ccc(C(F)(F)F)cc1)c1ncccc1F)c1ccc2[nH]c(=O)ccc2c1", "note": "[Example 104, (S)-N-((3-fluoropyridin-2-yl)(4-(trifluoromethyl)phenyl)methyl)-2-oxo-1,2-dihydroquinoline-6-carboxamide]", "values": [{"measurement": "IC50", "value": 0.0062, "unit": "µM"}]}
{"smiles": "CCn1cc(C(=O)N[C@@H](c2ccc(Cl)c(Cl)c2)c2ncccc2F)ccc1=O", "note": "[Example 365, (S)-N-((3,4-dichlorophenyl)(3-fluoropyridin-2-yl)methyl)-1-ethyl-6-oxo-1,6-dihydropyridine-3-carboxamide]", "values": [{"measurement": "IC50", "value": 0.0401, "unit": "µM"}]}
{"smiles": "COc1ncccc1C(=O)N[C@@H](c1ccc(C(F)(F)F)cc1)c1ncccc1F", "note": "[Example 47, (S)-N-((3-fluoropyridin-2-yl)(4-(trifluoromethyl)phenyl)methyl)-2-methoxynicotinamide]", "values": [{"measurement": "IC50", "value": 0.0201, "unit": "µM"}]}
{"smiles": "Cn1c(=O)c(=O)n(O)c2ccc(C(=O)N[C@@H](c3ccc(OC(F)(F)F)c(F)c3)c3ncccc3F)cc21", "note": "[Example 436, (S)—N-((3-Fluoro-4-(trifluoromethoxy)phenyl)(3-fluoropyridin-2-yl)methyl)-1-hydroxy-4-methyl-2,3-dioxo-1,2,3,4-tetrahydroquinoxaline-6-carboxamide]", "values": [{"measurement": "IC50", "value": 0.0224, "unit": "µM"}]}
{"smiles": "O=C(N[C@@H](c1ccc(OC(F)(F)F)cc1)c1ncccc1F)c1c[nH]c(=O)cn1", "note": "[Example 354, (S)-N-((3-fluoropyridin-2-yl)(4-(trifluoromethoxy)phenyl)methyl)-5-oxo-4,5-dihydropyrazine-2-carboxamide]", "values": [{"measurement": "IC50", "value": 0.0681, "unit": "µM"}]}
{"smiles": "O=C(N[C@@H](c1ccc(C(F)(F)F)cc1)c1ncccc1F)c1ccc2[nH]c(=O)oc2c1", "note": "[Example 78, (S)-N-((3-fluoropyridin-2-yl)(4-(trifluoromethyl)phenyl)methyl)-2-oxo-2,3-dihydrobenzo[d]oxazole-6-carboxamide]", "values": [{"measurement": "IC50", "value": 0.0148, "unit": "µM"}]}
{"smiles": "O=C(N[C@@H](c1ccc(C(F)(F)F)cc1)c1ncccc1F)c1c[nH]c2ncccc12", "note": "[Example 54, (S)-N-((3-fluoropyridin-2-yl)(4-(trifluoromethyl)phenyl)methyl)-1H-pyrrolo[2,3-b]pyridine-3-carboxamide]", "values": [{"measurement": "IC50", "value": 0.0231, "unit": "µM"}]}
{"smiles": "O=C(N[C@@H](c1ccc(OC(F)(F)F)c(F)c1)c1ccccn1)c1ccc2[nH]cnc2c1", "note": "[Example 393, (S)-N-((3-fluoro-4-(trifluoromethoxy)phenyl)(pyridin-2-yl)methyl)-1H-benzo[d]imidazole-5-carboxamide]", "values": [{"measurement": "IC50", "value": 0.0061, "unit": "µM"}]}
{"smiles": "Cn1cc(C(=O)N[C@@H](c2ccc(C(F)(F)F)cc2)c2ncccc2C(F)(F)F)ccc1=O", "note": "[Example 50, (S)-1-methyl-6-oxo-N-((4-(trifluoromethyl)phenyl)(3-(trifluoromethyl)pyridin-2-yl)methyl)-1,6-dihydropyridine-3-carboxamide]", "values": [{"measurement": "IC50", "value": 0.0105, "unit": "µM"}]}
{"smiles": "Cc1ccc(C(=O)N[C@@H](c2ccc(C(F)(F)F)cc2)c2ncccc2C(F)(F)F)cn1", "note": "[Example 40, (S)-6-methyl-N-((4-(trifluoromethyl)phenyl)(3-(trifluoromethyl)pyridin-2-yl)methyl)nicotinamide]", "values": [{"measurement": "IC50", "value": 0.0134, "unit": "µM"}]}
{"smiles": "O=C(N[C@@H](c1ccc(C(F)(F)F)cc1)c1ncccc1F)c1cnc(Cl)c(Br)c1", "note": "[Example 198, (S)-5-bromo-6-chloro-N-((3-fluoropyridin-2-yl)(4-(trifluoromethyl)phenyl)methyl)nicotinamide]", "values": [{"measurement": "IC50", "value": 0.056, "unit": "µM"}]}
{"smiles": "Cn1cc(C(=O)N[C@@H](c2ccc(F)cc2)c2ncccc2F)ccc1=O", "note": "[Example 341, (S)-N-((4-fluorophenyl)(3-fluoropyridin-2-yl)methyl)-1-methyl-6-oxo-1,6-dihydropyridine-3-carboxamide]", "values": [{"measurement": "IC50", "value": 4.28, "unit": "µM"}]}
{"smiles": "Cc1nccn1CC(=O)N[C@@H](c1ccc(C(F)(F)F)cc1)c1ncccc1C(F)(F)F", "note": "[Example 160, (S)-2-(2-methyl-1H-imidazol-1-yl)-N-((4-(trifluoromethyl)phenyl)(3-(trifluoromethyl)pyridin-2-yl)methyl)acetamide]", "values": [{"measurement": "IC50", "value": 3.32, "unit": "µM"}]}
{"smiles": "O=C1Cc2cc(C(=O)N[C@@H](c3ccc(C(F)(F)F)cc3)c3ncccc3F)ccc2N1", "note": "[Example 70, (S)-N-((3-fluoropyridin-2-yl)(4-(trifluoromethyl)phenyl)methyl)-2-oxoindoline-5-carboxamide]", "values": [{"measurement": "IC50", "value": 0.0152, "unit": "µM"}]}
{"smiles": "Nc1cnccc1C(=O)N[C@@H](c1ccc(C(F)(F)F)cc1)c1ncccc1C(F)(F)F", "note": "[Example 139, (S)-3-amino-N-((4-(trifluoromethyl)phenyl)(3-(trifluoromethyl)pyridin-2-yl)methyl)isonicotinamide]", "values": [{"measurement": "IC50", "value": 0.0659, "unit": "µM"}]}
{"smiles": "CS(=O)(=O)Nc1ccc(C(=O)N[C@@H](c2ccc(C(F)(F)F)cc2)c2ncccc2F)cc1", "note": "[Example 213, (S)-N-((3-fluoropyridin-2-yl)(4-(trifluoromethyl)phenyl)methyl)-4-(methylsulfonamido)benzamide]", "values": [{"measurement": "IC50", "value": 0.043, "unit": "µM"}]}
{"smiles": "O=C(N[C@@H](c1ccc(C(F)(F)F)cc1)c1ncccc1F)c1cccc(F)c1", "note": "[Example 187, (S)-3-fluoro-N-((3-fluoropyridin-2-yl)(4-(trifluoromethyl)phenyl)methyl)benzamide]", "values": [{"measurement": "IC50", "value": 0.0453, "unit": "µM"}]}
{"smiles": "O=C(N[C@@H](c1ccc(C(F)(F)F)cc1)c1ncccc1C(F)(F)F)c1cc2ccccc2s1", "note": "[Example 222, (S)-N-((4-(trifluoromethyl)phenyl)(3-(trifluoromethyl)pyridin-2-yl)methyl)benzo[b]thiophene-2-carboxamide]", "values": [{"measurement": "IC50", "value": 0.119, "unit": "µM"}]}
{"smiles": "O=C(N[C@@H](c1ccc(Cl)c(Cl)c1)c1ncccc1C(F)(F)F)c1ccc2cccnc2c1", "note": "[Example 10]", "values": [{"measurement": "IC50", "value": 0.0205, "unit": "µM"}]}
{"smiles": "O=C(N[C@@H](c1ccc(C(F)(F)F)cc1)c1ncccc1C(F)(F)F)c1cnc2ccccc2c1", "note": "[Example 230, (S)-N-((4-(trifluoromethyl)phenyl)(3-(trifluoromethyl)pyridin-2-yl)methyl)quinoline-3-carboxamide]", "values": [{"measurement": "IC50", "value": 0.0837, "unit": "µM"}]}
{"smiles": "O=C(N[C@@H](c1ccc(C(F)(F)F)cc1)c1ncccc1C(F)(F)F)c1ccc(C(=O)O)nc1", "note": "[Example 285, (S)-5-(((4-(Trifluoromethyl)phenyl)(3-(trifluoromethyl)-pyridin-2-yl)methyl)carbamoyl)picolinic Acid 2,2,2-trifluoroacetate]", "values": [{"measurement": "IC50", "value": 2.16, "unit": "µM"}]}
{"smiles": "COc1ccccc1C(=O)N[C@@H](c1ccc(C(F)(F)F)cc1)c1ncccc1F", "note": "[Example 169, (S)-N-((3-fluoropyridin-2-yl)(4-(trifluoromethyl)phenyl)methyl)-2-methoxybenzamide]", "values": [{"measurement": "IC50", "value": 0.0104, "unit": "µM"}]}
{"smiles": "O=C(O)COc1ccc(C(=O)N[C@@H](c2ccc(C(F)(F)F)cc2)c2ncccc2F)nc1", "note": "[Example 279, (S)-2-((6-(((3-Fluoropyridin-2-yl)(4-(trifluoromethyl)phenyl)-methyl)carbamoyl)pyridin-3-yl)oxy)acetic Acid]", "values": [{"measurement": "IC50", "value": 1.81, "unit": "µM"}]}
{"smiles": "COc1ccccc1C(=O)N[C@@H](c1ccc(C(F)(F)F)cc1)c1ncccc1C(F)(F)F", "note": "[Example 176, (S)-2-methoxy-N-((4-(trifluoromethyl)phenyl)(3-(trifluoromethyl)pyridin-2-yl)methyl)benzamide]", "values": [{"measurement": "IC50", "value": 0.0219, "unit": "µM"}]}
